Assay [1] addresses T1, PRMT6 (Homo sapiens, UniProt Q96LA8).
T1 construct: Flag-PRMT6-His; made in house; host or cells: HEK 293F cells (BacMam virus)
Description: PRMT6 Biochemical Assay (3H-SAM Flashplate, peptide substrate). To be noted: 30 min preincubation, room temperature. From the text: S-adenosylmethionine (SAM), S-adenosylhomocysteine (SAH), bicine, Tween20, dimethylsulfoxide (DMSO), bovine skin gelatin (BSG), sodium butyrate and Tris(2-carboxyethyl)phosphine hydrochloride solution (TCEP) were purchased from Sigma-Aldrich at the highest level of purity possible. ^3H-SAM was purchase from American Radiolabeled Chemicals with a specific activity of 80 Ci/mmol. 384-well streptavidin Flashplates were purchased from PerkinElmer.
Peptide representative of human histone H4 residues 36-50 was synthesized with an N-terminal linker-affinity tag motif and a C-terminal amide cap by 21st Century Biochemicals. The peptide was purified by high-performance liquid chromatography (HPLC) to greater than 95% purity and confirmed by liquid chromatography mass spectrometry (LC-MS). The sequence was Biot-Ahx-[…]-amide and contained a monomethylated lysine at position 44 (SEQ ID NO.:5).
Full-length human PRMT6 (NM_018137.2) transcript clone was amplified from an HEK 293 cDNA library, incorporating a flanking 5′ sequence encoding a FLAG tag ([…]) (SEQ ID NO.:6) fused directly to Ser 2 of PRMT6 and a 3′ sequence encoding a hexa His sequence (HHHHHH) fused directly to Asp 375. The amplified gene was subcloned into pFastBacMam (Viva Biotech).
Recombinant baculovirus were generated according to Bac-to-Bac kit instructions (Life Technologies). […] Infections were carried out at 37° C. for 48 hours, harvested by centrifugation, and stored at −80° C. for purification.
Column was washed with 20 mM imidazole in the same buffer and Flag-PRMT6-His was eluted with 150 mM imidazole. Pooled fractions were dialysed against buffer Ni-A and further purified by anti-flag M2 affinity chromatography. Flag-PRMT6-His was eluted with 200 ug/ml FLAG peptide in the same buffer. Pooled fractions were dialysed in 20 mM Tris, 150 mM NaCl, 10% glycerol and 5 mM β-mercaptoethanol, pH 7.8. The purity of recovered protein was 95%.
General Procedure for PRMT6 Enzyme Assays on Peptide Substrates.
The assays were all performed in a buffer consisting of 20 mM Bicine (pH=7.6), 1 mM TCEP, 0.005% BSG, and 0.002% Tween 20, prepared on the day of use. Compounds in 100% DMSO (1 ul) were spotted into a polypropylene 384-well V-bottom plates (Greiner) using a Platemate Plus outfitted with a 384-channel head (Thermo Scientific). DMSO (1 ul) was added to Columns 11, 12, 23, 24, rows A-H for the maximum signal control and 1 ul of SAH, a known product and inhibitor of PRMT6, was added to columns 11, 12, 23, 24, rows I-P for the minimum signal control. A cocktail (40 ul) containing the PRMT6 enzyme was added by Multidrop Combi (Thermo-Fisher). The compounds were allowed to incubate with PRMT6 for 30 min at room temperature, then a cocktail (10 ul) containing SAM and peptide was added to initiate the reaction (final volume=51 ul). The final concentrations of the components were as follows: PRMT6 was 1 nM, ^3H-SAM was 200 nM, non-radiolabeled SAM was 250 nM, peptide was 75 nM, SAH in the minimum signal control wells was 1 mM, and the DMSO concentration was 2%. The assays were stopped by the addition of non-radiolabeled SAM (10 ul) to a final concentration of 400 uM, which dilutes the ^3H-SAM to a level where its incorporation into the peptide substrate is no longer detectable. 50 ul of the reaction in the 384-well polypropylene plate was then transferred to a 384-well Flashplate and the biotinylated peptides were allowed to bind to the streptavidin surface for at least 1 hour before being washed once with 0.1% Tween20 in a Biotek ELx405 plate washer. The plates were then read in a PerkinElmer TopCount plate reader to measure the quantity of ^3H-labeled peptide bound to the Flashplate surface, measured as disintegrations per minute (dpm) or alternatively, referred to as counts per minute (cpm).
Where dpm=disintegrations per minute, cmpd=signal in assay well, and min and max are the respective minimum and maximum signal controls. […]

In assay [2] the test system is mono-methyl arginine in RKO cells. In words: RKO Methylation Assay, In Cell Western for mono-methyl arginine and DNA content. It counts as cell-based. The following applies: Homo sapiens, 72 hours, percent activation of mono-methyl arginine signal. An excerpt: RKO Methylation Assay RKO adherent cells were purchased from ATCC (American Type Culture Collection), Manassas, Va., USA. DMEM/Glutamax medium, penicillin-streptomycin, heat inactivated fetal bovine serum, 0.05% trypsin and D-PBS were purchased from Life Technologies, Grand Island, N.Y., USA. Odyssey blocking buffer, 800CW goat anti-rabbit IgG (H+L) antibody, and Licor Odyssey infrared scanner were purchased from Licor Biosciences, Lincoln, Nebr., USA. Mono-methyl arginine antibody was purchased from Cell Signaling Technology, Danvers, Mass., USA. Methanol was purchased from VWR, Franklin, Mass., USA. 10% Tween 20 was purchased from KPL, Inc., Gaithersburg, Md., USA. DRAQ5 was purchased from Biostatus Limited, Leicestershire, UK. RKO adherent cells were maintained in growth medium (DMEM/Glutamax medium supplemented with 10% v/v heat inactivated fetal bovine serum and 100 units/mL penicillin-streptomycin) and cultured at 37° C. under 5% CO2. Cell Treatment, in Cell Western (ICW) for Detection of Mono-Methyl Arginine and DNA Content. RKO cells were seeded in assay medium at a concentration of 20,000 cells per mL to a poly-D-lysine coated 384 well culture plate (BD Biosciences 356697) with 50 μL per well. Compound (100 nL) from a 96-well source plate was added directly to 384 well cell plate. Plates were incubated at 37° C., 5% CO2 for 72 hours. After three days of incubation, plates were brought to room temperature outside of the incubator for ten minutes and blotted on paper towels to remove cell media. 50 μL of ice cold 100% methanol was added directly to each well and incubated for 30 min at room temperature. After 30 min, plates were transferred to a Biotek EL406 plate washer and washed 2 times with 100 μL per well of wash buffer (IX PBS). Next 60 μL per well of Odyssey blocking buffer (Odyssey Buffer with 0.1% Tween 20 (v/v)) were added to each plate and incubated 1 hour at room temperature. Blocking buffer was removed and 20 μL per well of primary antibody was added (mono-methyl arginine diluted 1:200 in Odyssey buffer with 0.1% Tween 20 (v/v)) and plates were incubated overnight (16 hours) at 4° C. Plates were washed 5 times with 100 μL per well of wash buffer. Next 20 μL per well of secondary antibody was added (1:200 800CW goat anti-rabbit IgG (H+L) antibody, 1:1000 DRAQ5 (Biostatus limited) in Odyssey buffer with 0.1% Tween 20 (v/v)) and incubated for 1 hour at room temperature. The plates were washed 5 times with 100 μL per well wash buffer then 2 times with 100 μL per well of water. Plates were allowed to dry at room temperature then imaged on the Licor Odyssey machine which measures integrated intensity at 700 nm and 800 nm wavelengths. Both 700 and 800 channels were scanned. Calculations: First, the ratio for each well was determined by: Each plate included fourteen control wells of DMSO only treatment (minimum activation) as well as fourteen control wells for maximum activation treated with 20 μM of a reference compound. The average of the ratio values for each control type was calculated and used to determine the percent activation for each test well in the plate. Reference compound was serially diluted three-fold in DMSO for a total of nine test concentrations, beginning at 20 μM. Percent activation was determined and EC30 curves were generated using triplicate wells per concentration of compound.

The record followed here is patent publication US9630961B2, “Arginine methyltransferase inhibitors and uses thereof” (Epizyme, Inc., priority 2013, dated 2017).

One may read the IC50 as the concentration at which inhibition is half-maximal. Low values mean greater potency in that assay, high ones weaker potency in that assay. In general, EC30 refers to the concentration needed for an effect of 30%. Read a low EC30 as greater potency.

Each structure is given as a SMILES string.

T1 sequence (Q96LA8 with tags, fused parts or gaps): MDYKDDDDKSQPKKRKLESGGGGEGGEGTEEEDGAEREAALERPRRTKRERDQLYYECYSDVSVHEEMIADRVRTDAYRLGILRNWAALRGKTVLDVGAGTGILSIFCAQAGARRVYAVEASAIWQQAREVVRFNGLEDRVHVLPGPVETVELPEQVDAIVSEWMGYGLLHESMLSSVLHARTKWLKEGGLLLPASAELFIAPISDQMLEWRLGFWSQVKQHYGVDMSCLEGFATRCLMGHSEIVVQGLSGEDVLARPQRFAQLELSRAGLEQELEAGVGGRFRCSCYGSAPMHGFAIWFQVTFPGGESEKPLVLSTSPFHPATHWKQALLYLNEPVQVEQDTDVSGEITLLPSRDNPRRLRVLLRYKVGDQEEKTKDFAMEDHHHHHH

`Cc1nn(C)c(C)c1-c1n[nH]cc1CN(C)CCN` [Compound 26]: in assay [1], the IC50 is at least 10 µM. In assay [2], the EC30 was at least 12 µM.
